The values that follow come from paper PMC6154466, “Design, Synthesis, Molecular Docking Analysis, and Carbonic Anhydrase IX Inhibitory Evaluations of Novel N-Substituted-β-D-Glucosamine Derivatives that Incorporate Benzenesulfonamides” (Molecules : A Journal of Synthetic Chemistry and Natural …, 2017).

Usually IC50 stands for the concentration needed to halve the response being measured. What is called melting point is the temperature of the solid-liquid transition.

Structures are written as SMILES.

Data set [1] has as its target T1, Recombinant human carbonic anhydrase IX (Homo sapiens, UniProt Q16790).
T1 construct: purchased Sino Biological Inc, Beijing, China
The data set is described as follows: hCA IX inhibition, 4-nitrophenyl acetate (4-NPA) esterase assay. The class given is biochemical. The following applies: mean ± standard error. As for the experimental part:
Carbonic anhydrases are able to catalyze the conversion 4-nitrophenyl acetate (4-NPA) to 4-nitrophenol. […] One × Assay buffer is composed of 15 mmol/L 4-(2-hydroxyethyl)-1-piperazineethanesulfonic acid (HEPES) (pH = 7.4), 0.01% tetraethylene glycol monododecyl ether (BRIJ) and 100 mmol/L NaCl. […] Then, 18 μL of enzyme solution was transferred into 384-well assay plates in triplicate. Stock solutions of the inhibitor (10 mmol/L) were prepared using DMSO as solvent, and then diluted 1:3 with DMSO. […] The normalized data were then fit to a sigmoidal dose-response curve using GraphPad Prism 5.0 software, La Jolla, CA, USA to obtain the IC50. Final enzyme concentration was 5 ng/μL.

Data set [2] deals with CA IX over intracellular CA I. Also noted: method as in PMID 25254302. The following applies: cited from earlier work.
The subject of data set [3] is CA IX over intracellular CA II. Set-up: method as in PMID 25254302. The following applies: cited from earlier work.

The molecule `CN(C)S(=O)(=O)N[C@@H]1[C@@H](O)[C@H](O)[C@@H](CO)O[C@H]1NC(=S)Nc1ccc(S(N)(=O)=O)cc1` [Compound 7q, N-[4-(Aminosulfonyl)phenyl]-N′-[2′-(N′,N′-dimethylsulfonylamino)-2′-deoxy-β-D-glucopyranosyl]thiourea] registered a melting point of 157.4 to 159.4 °C. For the same molecule, the IC50 in data set [1] turned out to be 72.1 ± 6.15 nM.

`NS(=O)(=O)c1ccc(NC(=S)N[C@@H]2O[C@H](CO)[C@@H](O)[C@H](O)[C@H]2NS(=O)(=O)c2ccccc2[N+](=O)[O-])cc1` [Compound 7k, N-[4-(Aminosulfonyl)phenyl]-N′-[2′-(2′-nitrobenzenesulfonylamino)-2′-deoxy-β-D-glucopyranosyl]thiourea] registered a melting point of 169.7 to 171.7 °C. Further, the IC50 in data set [1] came out at 15.6 ± 0.44 nM.

For the molecule `NS(=O)(=O)c1ccc(NC(=S)N[C@@H]2O[C@H](CO)[C@@H](O)[C@H](O)[C@H]2NS(=O)(=O)c2cccc([N+](=O)[O-])c2)cc1` [Compound 7l, N-[4-(Aminosulfonyl)phenyl]-N′-[2′-(3′-nitrobenzenesulfonylamino)-2′-deoxy-β-D-glucopyranosyl]thiourea], the melting point was 177.3 to 179.2 °C. Further, in data set [1], the IC50 is 18.9 ± 0.33 nM.

As for `CC(=O)NC1C(NC(=S)Nc2ccc(S(N)(=O)=O)cc2)OC(COC(C)=O)C(OC(C)=O)C1OC(C)=O` [Compound 9a, N-[4-(Aminosulfonyl)phenyl]-N′-(2′-acetylamino-3′,4′,6′-tri-O-acetyl-2′-deoxy-β-D-glucopyranosyl)thiourea], the melting point was 141.8 to 142.9 °C. For the same molecule, the IC50 in data set [1] was 1290 ± 141 nM.

`Cc1ccccc1S(=O)(=O)N[C@@H]1[C@@H](O)[C@H](O)[C@@H](CO)O[C@H]1NC(=S)Nc1ccc(S(N)(=O)=O)cc1` [Compound 7b, N-[4-(Aminosulfonyl)phenyl]-N′-[2′-(2′-methylbenzenesulfonylamino)-2′-deoxy-β-D-glucopyranosyl]thiourea] displayed a melting point of 175.2 to 177.1 °C. Also, in data set [1], the IC50 came to 21.9 ± 0.37 nM.

As for `Cc1ccc(S(=O)(=O)NC2C(NC(=S)Nc3ccc(S(N)(=O)=O)cc3)OC(CO)C(O)C2O)cc1` [Compound 7a, N-[4-(Aminosulfonyl)phenyl]-N′-[2′-(4′-methylbenzenesulfonylamino)-2′-deoxy-β-D-glucopyranosyl]thiourea], the melting point was in the range of 159.5 to 161.2 °C. Further, the IC50 in data set [1] is 21.8 ± 3.18 nM.

In turn, `NS(=O)(=O)c1ccc(NC(=S)N[C@@H]2O[C@H](CO)[C@@H](O)[C@H](O)[C@H]2NS(=O)(=O)c2ccc3ccccc3c2)cc1` [Compound 7n, N-[4-(Aminosulfonyl)phenyl]-N′-[2′-(naphthalene-2′-sulfonylamino)-2′-deoxy-β-D-glucopyranosyl]thiourea] gave a melting point of 182.7 to 184.6 °C. Moreover, the IC50 in data set [1] was determined as 24.78 ± 0.05 nM.

In turn, `CC(=O)NC1C(NC(=S)Nc2ccc(S(N)(=O)=O)cc2)OC(CO)C(O)C1O` [Compound 9b, N-[4-(Aminosulfonyl)phenyl]-N′-(2′-acetylamino-2′-deoxy-β-D-glucopyranosyl)thiourea] returned a melting point of 151.1 to 152.9 °C. Further, the IC50 in data set [1] was 176 ± 9.45 nM.

In the case of `NS(=O)(=O)c1ccc(NC(=S)NC2OC(CO)C(O)C(O)C2NS(=O)(=O)c2ccc(C(F)(F)F)cc2)cc1` [Compound 7f, N-[4-(Aminosulfonyl)phenyl]-N′-[2′-(4′-trifluoromethylbenzenesulfonylamino)-2′-deoxy-β-D-glucopyranosyl]thiourea], the melting point was 164 to 165.4 °C. For the same molecule, in data set [1], the IC50 was 10 ± 0.23 nM.

In turn, `NS(=O)(=O)c1ccc(NC(=S)N[C@@H]2O[C@H](CO)[C@@H](O)[C@H](O)[C@H]2NS(=O)(=O)c2cccc(Br)c2)cc1` [Compound 7i, N-[4-(Aminosulfonyl)phenyl]-N′-[2′-(3′-bromobenzenesulfonylamino)-2′-deoxy-β-D-glucopyranosyl]thiourea] had a melting point of 172.9 to 174.7 °C. Besides, the 50% inhibitory concentration (IC50) in data set [1] was 12.6 ± 0.96 nM.

Consider `CCCS(=O)(=O)NC1C(NC(=S)Nc2ccc(S(N)(=O)=O)cc2)OC(CO)C(O)C1O` [Compound 7p, N-[4-(Aminosulfonyl)phenyl]-N′-(2′-n-propylsulfonylamino-2′-deoxy-β-D-glucopyranosyl)thiourea], for which the melting point fell in the range of 159.1 to 160.6 °C. Besides, in data set [1], the IC50 was 389 ± 27.7 nM.

The molecule `NS(=O)(=O)c1ccc(NC(=S)N[C@@H]2O[C@H](CO)[C@@H](O)[C@H](O)[C@H]2NS(=O)(=O)c2ccc(Br)cc2)cc1` [Compound 7h, N-[4-(Aminosulfonyl)phenyl]-N′-[2′-(4′-bromobenzenesulfonylamino)-2′-deoxy-β-D-glucopyranosyl]thiourea] displayed a melting point of 174.1 to 176 °C. In data set [1], the IC50 worked out at 21.3 ± 1.29 nM.

With `NS(=O)(=O)c1ccc(NC(=S)N[C@@H]2O[C@H](CO)[C@@H](O)[C@H](O)[C@H]2NS(=O)(=O)c2ccc(Cl)cc2)cc1` [Compound 7g, N-[4-(Aminosulfonyl)phenyl]-N′-[2′-(4′-chlorobenzenesulfonylamino)-2′-deoxy-β-D-glucopyranosyl]thiourea], the melting point is 167.2 to 168.8 °C. The IC50 in data set [1] stood at 26.9 ± 0.28 nM.

With `NS(=O)(=O)c1ccc(NC(=S)N[C@@H]2O[C@H](CO)[C@@H](O)[C@H](O)[C@H]2NS(=O)(=O)c2ccc(F)cc2)cc1` [Compound 7d, N-[4-(Aminosulfonyl)phenyl]-N′-[2′-(4′-fluorobenzenesulfonylamino)-2′-deoxy-β-D-glucopyranosyl]thiourea], the melting point fell in the range of 178 to 179.6 °C. The concentration for half-maximal inhibition (IC50) in data set [1] turned out to be 25.6 ± 2.15 nM.

On to `N#Cc1ccc(S(=O)(=O)N[C@@H]2[C@@H](O)[C@H](O)[C@@H](CO)O[C@H]2NC(=S)Nc2ccc(S(N)(=O)=O)cc2)cc1` [Compound 7m, N-[4-(Aminosulfonyl)phenyl]-N′-[2′-(4′-cyanobenzenesulfonylamino)-2′-deoxy-β-D-glucopyranosyl]thiourea], for which the melting point lay within 169 to 170.6 °C. For the same molecule, the IC50 in data set [1] came out at 21.9 ± 0.49 nM.

Regarding `NS(=O)(=O)OCCCCCNS(=O)(=O)[C@@H]1O[C@H](CO)[C@@H](O)[C@H](O)[C@H]1O` [Compound A], in data set [2], the “selectivity for CA IX over CA I” value is recorded as 1200 fold. In addition, the “selectivity for CA IX over CA II” value in data set [3] is recorded as 3200 fold.

Molecule `NS(=O)(=O)c1ccc(NC(=S)N[C@@H]2O[C@H](CO)[C@@H](O)[C@H](O)[C@H]2NS(=O)(=O)c2ccc([N+](=O)[O-])cc2)cc1` [Compound 7j, N-[4-(Aminosulfonyl)phenyl]-N′-[2′-(4′-nitrobenzenesulfonylamino)-2′-deoxy-β-D-glucopyranosyl]thiourea] yielded a melting point of 174.7 to 176 °C. In addition, the IC50 in data set [1] is 25.4 ± 3.8 nM.

The molecule `COc1ccc(S(=O)(=O)N[C@@H]2[C@@H](O)[C@H](O)[C@@H](CO)O[C@H]2NC(=S)Nc2ccc(S(N)(=O)=O)cc2)cc1` [Compound 7c, N-[4-(Aminosulfonyl)phenyl]-N′-[2′-(4′-methoxybenzenesulfonylamino)-2′-deoxy-β-D-glucopyranosyl]thiourea] yielded a melting point of 165 to 166.3 °C. The IC50 in data set [1] amounted to 23.8 ± 0.51 nM.

Regarding `NS(=O)(=O)c1ccc(NC(=S)N[C@@H]2O[C@H](CO)[C@@H](O)[C@H](O)[C@H]2NS(=O)(=O)c2cccs2)cc1` [Compound 7r, N-[4-(Aminosulfonyl)phenyl]-N′-[2′-(thiophene-2′-sulfonylamino)-2′-deoxy-β-D-glucopyranosyl]thiourea], the melting point fell in the range of 172.8 to 174 °C. Moreover, the IC50 in data set [1] stood at 65.8 ± 0.08 nM.

In turn, `NS(=O)(=O)c1ccc(NC(=S)N[C@@H]2O[C@H](CO)[C@@H](O)[C@H](O)[C@H]2NS(=O)(=O)c2cc(F)cc(F)c2)cc1` [Compound 7e, N-[4-(Aminosulfonyl)phenyl]-N′-[2′-(3′,5′-difluorobenzenesulfonylamino)-2′-deoxy-β-D-glucopyranosyl]thiourea] had a melting point of 164.4 to 165.2 °C. Moreover, the IC50 in data set [1] was determined as 11.5 ± 0.93 nM.

The molecule `CCS(=O)(=O)N[C@@H]1[C@@H](O)[C@H](O)[C@@H](CO)O[C@H]1NC(=S)Nc1ccc(S(N)(=O)=O)cc1` [Compound 7o, N-[4-(Aminosulfonyl)phenyl]-N′-(2′-ethylsulfonylamino-2′-deoxy-β-D-glucopyranosyl)thiourea] returned a melting point of 164.8 to 166.2 °C. In addition, in data set [1], the IC50 amounted to 66.9 ± 3.26 nM.
